The text below walks through data of patent US8278072B1, “Method for synthesis of sialylated products using reversible sialylation” (Health Research, Inc., priority 2007, dated 2012).

In this test the target is T1, ST3Gal-II (Rattus norvegicus, UniProt Q11205).
T1 construct: purchased Calbiochem
T1 sequence (Q11205 1-350): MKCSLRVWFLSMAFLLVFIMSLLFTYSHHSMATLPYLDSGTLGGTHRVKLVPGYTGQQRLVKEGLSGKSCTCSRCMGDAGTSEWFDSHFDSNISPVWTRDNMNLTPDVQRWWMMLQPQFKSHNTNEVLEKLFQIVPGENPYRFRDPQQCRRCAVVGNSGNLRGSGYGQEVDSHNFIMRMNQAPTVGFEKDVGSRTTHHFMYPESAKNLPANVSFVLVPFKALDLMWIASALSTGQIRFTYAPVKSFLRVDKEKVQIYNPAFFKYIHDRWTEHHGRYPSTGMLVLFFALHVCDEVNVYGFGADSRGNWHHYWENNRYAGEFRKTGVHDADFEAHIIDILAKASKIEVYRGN
The test is described as follows: Reverse sialylation: transfer of [9-3H]NeuAc from sialylated donor to nucleotide phosphates (WGA-agarose). The class given is biochemical. The note with it: donor [1]; for Incorporation of [9-3H]NeuAc expressed as percent of the CPM incorporated into 5′-CMP: nucleotide phosphate 1 mM as acceptor. On the procedure: FIG. 1. Nucleotide phosphates as acceptors of radioactivity from [9-^3H]NeuAcα2,3Galβ,13 (GlcNAcβ1,6)GalNAcα-O—Al (Al=Allyl) [[9-^3H] [1]] in the presence of ST3Gal-II (scheme-I). Reaction mixtures (RM) with the following composition were incubated at 37° C. for 21 hours in 100 mM NaCa Codylate buffer, pH6.0: i) RM containing 150 μM (0.4 μCi) [[9-^3H] [1]] (donor) along with 0.8 mU ST3Gal-II but no 5″-CMP; and, ii) RM containing [[9-^3H] [1]] and 1.0 mM 5′-CMP, along with ST3Gal-II. Products formed were fractionated on a WGA-agarose column. […] The feasibility of the reverse reaction is well established in literature. Schematic symbols: ♦:sialic acid, ●:Gal, □:GalNAc, ▪:GlcNAc.
All enzymatic sialylation reactions were typically carried out in 100 mM NaCa Codylate buffer pH6.0 in the presence of enzyme, synthetic acceptor (at 7.5 mM or as indicated in each experiment) and 0.2 μCi CMP-[9-^3H]NeuAc (NEN-Dupont, 29 mCi/μmol). The concentration of total CMP-NeuAc was adjusted in individual reactions by supplementing with additional cold CMP-NeuAc. Reaction volume was 20 μl. Products formed were separated using four different chromatography procedures (below). In all cases, the radioactive content of isolated products was determined by using 3a70 scintillation cocktail (Research Products International, Mount Prospect, Ill.), and a Beckman LS6500 scintillation counter.
a) Biogel P2 chromatography: A Biogel P2 column (Fine Mesh; 1.0×116.0 cm) was used with 0.1 M pyridine acetate (pH5.4) as the eluent at room temperature. […] Fractions of 1.0 ml were collected. The bound material was then eluted with 0.5M GlcNAc or 0.2M Gal in the same buffer. […] Calculation of equilibrium constant, Keq: Equilibrium constant was calculated for selected reversible bimolecular reactions that are denoted by:
Cloned and purified rat sialyltransferase α2,3(O)ST (ST3Gal-II) is used in many experiments presented in this manuscript. […] In order to determine if the sialylation reaction is reversible (FIG. 1), [9-^3H]NeuAcα2,3Galβ,13(GlcNAcβ1,6)GalNAcα-O—Al (Al=Allyl) [9-^3H[1]] was prepared using ST3Gal-II in the presence of CMP-[9-^3H]NeuAc and the trisaccharide acceptor Galβ1,3(GlcNAcβ1,6)GalNAcα-O—Al, and the radiolabeled product was isolated using Biogel P2 chromatography. […] Two different reaction mixtures were then prepared with: i) [9-^3H[1]] and ST3Gal-II but without 5″-CMP; and ii) [9-^3H[1]] and 5″-CMP along with ST3Gal-II.

Each structure is given as a SMILES string.

Take `Nc1ccn([C@@H]2O[C@H](COP(=O)(O)OP(=O)(O)O)[C@@H](O)[C@H]2O)c(=O)n1` [5′-CDP]: the “Incorporation of [9-3H]NeuAc expressed as percent of the CPM incorporated into 5′-CMP” value was 28.4%.

In the case of `Nc1ccn([C@@H]2O[C@H](COP(=O)(O)O)[C@@H](O)[C@H]2O)c(=O)n1` [5′-CMP, Cytidine 5′-monophosphate], the “Incorporation of [9-3H]NeuAc expressed as percent of the CPM incorporated into 5′-CMP” value was found to be 100.0%. Further, where the note is “1 mM nucleotide phosphate”, the “Incorporation of [9-3H]NeuAc” value is “(44197 CPM)”.
